The compounds below were run against neutrophil elastase (Homo sapiens (Human), UniProt P08246) (assay: Human Neutrophil Elastase Assay). Conditions: substrate MeOSuc-Ala-Ala-Pro-Val-AMC.
Type: biochemical
Procedure: Human Neutrophil Elastase Assay
All other materials were of the highest grade commercially available.
The following buffers were used: Compound buffer: 100 mM Tris, 500 mM NaCl, adjusted to pH 7.5; Assay buffer: 100 mM Tris, 500 mM NaCl, adjusted to pH 7.5, containing 0.01% BSA.
Assay conditions: Test compounds were prediluted in DMSO and subsequently in compound buffer (5% DMSO final). […] After inactivation of the enzyme, fluorescence intensities were measured at 380 nm excitation and 460 nm emission wavelengths.
Each plate contains wells with a high value control (DMSO+enzyme+substrate) and wells with a low value control (DMSO+inactivated enzyme+substrate). IC50 values were estimated using a sigmoidal concentration response curve with variable slope. Means of low values were taken as 0%, means of high values as 100%.

Sequence of neutrophil elastase (P08246 30-247): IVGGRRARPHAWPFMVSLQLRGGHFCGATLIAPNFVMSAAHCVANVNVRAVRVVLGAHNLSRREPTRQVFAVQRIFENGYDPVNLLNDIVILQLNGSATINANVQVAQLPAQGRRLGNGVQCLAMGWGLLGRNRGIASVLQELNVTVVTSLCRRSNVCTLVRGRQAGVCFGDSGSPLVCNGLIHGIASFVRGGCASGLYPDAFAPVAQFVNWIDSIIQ

Compound | IC50 [nM]
CC(=O)C1=C(C)N(c2cccc(C(F)(F)F)c2)C(=O)N(C)C1c1ccc(C#N)cc1C(=O)N(C)C (stereo not shown) [Example 1.2] | < 1
CC(=O)C1=C(C)N(c2cccc(C(F)(F)F)c2)C(=O)N(C)C1c1ccc(C#N)cc1C(=O)N1CCOCC1 (stereo not shown) [Example 1.3] | 2.25
CC(=O)C1=C(C)N(c2cccc(C(F)(F)F)c2)C(=O)N(C)C1c1ccc(C#N)cc1C(=O)N1CCC1 (stereo not shown) [Example 1.7] | < 1
CC(=O)C1=C(C)N(c2cccc(C(F)(F)F)c2)C(=O)N(C)C1c1ccc(C#N)cc1C(=O)N1CCCC1 (stereo not shown) [Example 1.11] | < 1
CC(=O)C1=C(C)N(c2cccc(C(F)(F)F)c2)C(=O)N(C)C1c1ccc(C#N)cc1C(=O)N1CC(O)C1 (stereo not shown) [Example 1.12] | < 1
CC(=O)C1=C(C)N(c2cccc(C(F)(F)F)c2)C(=O)N(C)C1c1ccc(C#N)cc1C(=O)NC1COC1 (stereo not shown) [Example 1.13] | < 1
CC(=O)C1=C(C)N(c2cccc(C(F)(F)F)c2)C(=O)N(C)C1c1ccc(C#N)cc1C(=O)N(C)CCO (stereo not shown) [Example 1.14] | < 1
COCCNC(=O)c1cc(C#N)ccc1C1C(C(C)=O)=C(C)N(c2cccc(C(F)(F)F)c2)C(=O)N1C (stereo not shown) [Example 1.15] | < 1
CC(=O)C1=C(C)N(c2cccc(C(F)(F)F)c2)C(=O)N(C)C1c1ccc(C#N)cc1C(=O)NCCCO (stereo not shown) [Example 1.16] | < 1
CC(=O)C1=C(C)N(c2cccc(C(F)(F)F)c2)C(=O)N(C)C1c1ccc(C#N)cc1C(=O)NC12CC(C1)C2 (stereo not shown) [Example 1.18] | 1
CC(=O)C1=C(C)N(c2cccc(C(F)(F)F)c2)C(=O)N(C)C1c1ccc(C#N)cc1C(=O)NC1CCOC1 (stereo not shown) [Example 1.19] | < 1
COCCCNC(=O)c1cc(C#N)ccc1C1C(C(C)=O)=C(C)N(c2cccc(C(F)(F)F)c2)C(=O)N1C (stereo not shown) [Example 1.20] | < 1
COCCN(C)C(=O)c1cc(C#N)ccc1C1C(C(C)=O)=C(C)N(c2cccc(C(F)(F)F)c2)C(=O)N1C (stereo not shown) [Example 1.21] | < 1
CC(=O)C1=C(C)N(c2cccc(C(F)(F)F)c2)C(=O)N(C)C1c1ccc(C#N)cc1C(=O)NCC(F)(F)F (stereo not shown) [Example 1.23] | < 1
CC(=O)C1=C(C)N(c2cccc(C(F)(F)F)c2)C(=O)N(C)C1c1ccc(C#N)cc1C(=O)NC1CCOCC1 (stereo not shown) [Example 1.24] | < 1
CC(=O)C1=C(C)N(c2cccc(C(F)(F)F)c2)C(=O)N(C)C1c1ccc(C#N)cc1C(=O)NC1CCC(O)C1 (stereo not shown) [Example 1.25] | 1.1
CC(=O)C1=C(C)N(c2cccc(C(F)(F)F)c2)C(=O)N(C)C1c1ccc(C#N)cc1C(=O)N1CCC(O)CC1 (stereo not shown) [Example 1.26] | 4.7
COCCCN(C)C(=O)c1cc(C#N)ccc1C1C(C(C)=O)=C(C)N(c2cccc(C(F)(F)F)c2)C(=O)N1C (stereo not shown) [Example 1.27] | < 1
CC(=O)C1=C(C)N(c2cccc(C(F)(F)F)c2)C(=O)N(C)C1c1ccc(C#N)cc1C(=O)NC1CCN(C)CC1 (stereo not shown) [Example 1.28] | < 1
CC(=O)C1=C(C)N(c2cccc(C(F)(F)F)c2)C(=O)N(C)C1c1ccc(C#N)cc1C(=O)NCCS(C)(=O)=O (stereo not shown) [Example 1.29] | < 1

Compound | IC50 [nM]
CC(=O)C1=C(C)N(c2cccc(C(F)(F)F)c2)C(=O)N(C)C1c1ccc(C#N)cc1C(=O)N(C)Cc1cnn(C)c1 (stereo not shown) [Example 1.30] | < 1
CC(=O)C1=C(C)N(c2cccc(C(F)(F)F)c2)C(=O)N(C)C1c1ccc(C#N)cc1C(=O)NC1CCS(=O)(=O)C1 (stereo not shown) [Example 1.31] | < 1
CC(=O)C1=C(C)N(c2cccc(C(F)(F)F)c2)C(=O)N(C)C1c1ccc(C#N)cc1C(=O)NC1(C#N)CC1 (stereo not shown) [Example 1.32] | < 1
CC(=O)C1=C(C)N(c2cccc(C(F)(F)F)c2)C(=O)N(C)C1c1ccc(C#N)cc1C(=O)NC(C)(C)C#N (stereo not shown) [Example 1.33] | 1.8
CC(=O)C1=C(C)N(c2cccc(C(F)(F)F)c2)C(=O)N(C)C1c1ccc(C#N)cc1C(=O)NCc1cn[nH]c1 (stereo not shown) [Example 1.36] | < 1
CC(=O)C1=C(C)N(c2cccc(C(F)(F)F)c2)C(=O)N(C)C1c1ccc(C#N)cc1C(=O)NCc1cnoc1 (stereo not shown) [Example 1.39] | < 1
CC(=O)C1=C(C)N(c2cccc(C(F)(F)F)c2)C(=O)N(C)C1c1ccc(C#N)cc1C(=O)NC1CCN(C)C1 (stereo not shown) [Example 1.43] | < 1
CC(=O)C1=C(C)N(c2cccc(C(F)(F)F)c2)C(=O)N(C)C1c1ccc(C#N)cc1C(=O)N(C)CCN(C)C (stereo not shown) [Example 1.44] | < 1
CC(=O)C1=C(C)N(c2cccc(C(F)(F)F)c2)C(=O)N(C)C1c1ccc(C#N)cc1C(=O)NCc1ccnnc1 (stereo not shown) [Example 1.49] | < 1
CC(=O)C1=C(C)N(c2cccc(C(F)(F)F)c2)C(=O)N(C)C1c1ccc(C#N)cc1C(=O)NCc1cncn1C (stereo not shown) [Example 1.52] | < 1
CC(=O)C1=C(C)N(c2cccc(C(F)(F)F)c2)C(=O)N(C)C1c1ccc(C#N)cc1C(=O)NCc1cnn(C)c1 (stereo not shown) [Example 1.54] | < 1
CC(=O)C1=C(C)N(c2cccc(C(F)(F)F)c2)C(=O)N(C)C1c1ccc(C#N)cc1C(=O)N(C)Cc1cn[nH]c1 (stereo not shown) [Example 1.56] | 0.3
CC(=O)C1=C(C)N(c2cccc(C(F)(F)F)c2)C(=O)N(C)C1c1ccc(C#N)cc1C(=O)NCc1cn(C)cn1 (stereo not shown) [Example 1.58] | < 1
CC(=O)C1=C(C)N(c2cccc(C(F)(F)F)c2)C(=O)N(C)C1c1ccc(C#N)cc1C(=O)N(C)Cc1ccon1 (stereo not shown) [Example 1.59] | < 1
CC(=O)C1=C(C)N(c2cccc(C(F)(F)F)c2)C(=O)N(C)C1c1ccc(C#N)cc1C(=O)N(C)Cc1ccno1 (stereo not shown) [Example 1.60] | < 1
CC(=O)C1=C(C)N(c2cccc(C(F)(F)F)c2)C(=O)N(C)C1c1ccc(C#N)cc1C(=O)NCc1nncn1C (stereo not shown) [Example 1.61] | < 1.3
CC(=O)C1=C(C)N(c2cccc(C(F)(F)F)c2)C(=O)N(C)C1c1ccc(C#N)cc1C(=O)NCc1nnnn1C (stereo not shown) [Example 1.62] | < 1
CC(=O)C1=C(C)N(c2cccc(C(F)(F)F)c2)C(=O)N(C)C1c1ccc(C#N)cc1C(=O)N1CC[C@@H](N(C)C)C1 (stereo partly shown) [Example 1.63] | 1.8
CC(=O)C1=C(C)N(c2cccc(C(F)(F)F)c2)C(=O)N(C)C1c1ccc(C#N)cc1C(=O)N1CC[C@H](N(C)C)C1 (stereo partly shown) [Example 1.64] | < 1
CCN1CCN(C(=O)c2cc(C#N)ccc2C2C(C(C)=O)=C(C)N(c3cccc(C(F)(F)F)c3)C(=O)N2C)CC1 (stereo not shown) [Example 1.65] | 4.1

The next lines start with the values.

IC50 [nM] | Compound
< 1 | CC(=O)C1=C(C)N(c2cccc(C(F)(F)F)c2)C(=O)N(C)C1c1ccc(C#N)cc1C(N)=O (stereo not shown) [Example 1, 2-[5-Acetyl-3,6-dimethyl-2-oxo-1-(3-trifluoromethyl-phenyl)-1,2,3,4-tetrahydro-pyrimidin-4-yl]-5-cyano-benzamide]
< 1 | CNC(=O)c1cc(C#N)ccc1C1C(C(C)=O)=C(C)N(c2cccc(C(F)(F)F)c2)C(=O)N1C (stereo not shown) [Example 1.1]
< 1 | CCNC(=O)c1cc(C#N)ccc1C1C(C(C)=O)=C(C)N(c2cccc(C(F)(F)F)c2)C(=O)N1C (stereo not shown) [Example 1.4]
< 1 | C#CCNC(=O)c1cc(C#N)ccc1C1C(C(C)=O)=C(C)N(c2cccc(C(F)(F)F)c2)C(=O)N1C (stereo not shown) [Example 1.5]
< 1 | CC(=O)C1=C(C)N(c2cccc(C(F)(F)F)c2)C(=O)N(C)C1c1ccc(C#N)cc1C(=O)NCCO (stereo not shown) [Example 1.9]
< 1 | CC(=O)C1=C(C)N(c2cccc(C(F)(F)F)c2)C(=O)N(C)C1c1ccc(C#N)cc1C(=O)NCC(F)F (stereo not shown) [Example 1.17]
< 1 | CC(=O)C1=C(C)N(c2cccc(C(F)(F)F)c2)C(=O)N(C)C1c1ccc(C#N)cc1C(=O)NCc1ccoc1 (stereo not shown) [Example 1.34]
< 1 | CC(=O)C1=C(C)N(c2cccc(C(F)(F)F)c2)C(=O)N(C)C1c1ccc(C#N)cc1C(=O)NCc1ccco1 (stereo not shown) [Example 1.35]
< 1 | CC(=O)C1=C(C)N(c2cccc(C(F)(F)F)c2)C(=O)N(C)C1c1ccc(C#N)cc1C(=O)NCc1ncco1 (stereo not shown) [Example 1.37]
< 1 | CC(=O)C1=C(C)N(c2cccc(C(F)(F)F)c2)C(=O)N(C)C1c1ccc(C#N)cc1C(=O)NCc1ccno1 (stereo not shown) [Example 1.38]
< 1 | CC(=O)C1=C(C)N(c2cccc(C(F)(F)F)c2)C(=O)N(C)C1c1ccc(C#N)cc1C(=O)NCc1cnco1 (stereo not shown) [Example 1.40]
< 1 | CC(=O)C1=C(C)N(c2cccc(C(F)(F)F)c2)C(=O)N(C)C1c1ccc(C#N)cc1C(=O)NCc1ccon1 (stereo not shown) [Example 1.41]
< 1 | CC(=O)C1=C(C)N(c2cccc(C(F)(F)F)c2)C(=O)N(C)C1c1ccc(C#N)cc1C(=O)NCc1cocn1 (stereo not shown) [Example 1.42]
1 | CC(=O)C1=C(C)N(c2cccc(C(F)(F)F)c2)C(=O)N(C)C1c1ccc(C#N)cc1C(=O)NCc1ccccc1 (stereo not shown) [Example 1.45]
< 1 | CC(=O)C1=C(C)N(c2cccc(C(F)(F)F)c2)C(=O)N(C)C1c1ccc(C#N)cc1C(=O)NCc1ccccn1 (stereo not shown) [Example 1.46]
< 1 | CC(=O)C1=C(C)N(c2cccc(C(F)(F)F)c2)C(=O)N(C)C1c1ccc(C#N)cc1C(=O)NCc1cccnc1 (stereo not shown) [Example 1.48]
< 1 | CC(=O)C1=C(C)N(c2cccc(C(F)(F)F)c2)C(=O)N(C)C1c1ccc(C#N)cc1C(=O)NCc1cccnn1 (stereo not shown) [Example 1.50]
1.4 | CC(=O)C1=C(C)N(c2cccc(C(F)(F)F)c2)C(=O)N(C)C1c1ccc(C#N)cc1C(=O)NC(C)c1ccco1 (stereo not shown) [Example 1.51]
< 1 | CC(=O)C1=C(C)N(c2cccc(C(F)(F)F)c2)C(=O)N(C)C1c1ccc(C#N)cc1C(=O)NCc1ccnn1C (stereo not shown) [Example 1.53]
< 1 | CC(=O)C1=C(C)N(c2cccc(C(F)(F)F)c2)C(=O)N(C)C1c1ccc(C#N)cc1C(=O)NCc1ccn(C)n1 (stereo not shown) [Example 1.55]
< 1 | CC(=O)C1=C(C)N(c2cccc(C(F)(F)F)c2)C(=O)N(C)C1c1ccc(C#N)cc1C(=O)NCc1nccn1C (stereo not shown) [Example 1.57]
